Tested on: Pentylenetetrazol (PTZ)-induced epileptic seizures in rats
Experiment: Pentylenetetrazol (PTZ)-induced epileptic seizures, Racine grading, Midazolam IV vs SipNose
Type: in vivo, rat
Experimental: In this example, epileptic seizures were induced in rats by administration of 47.5-50 mg/kg of Pentylenetetrazol (PTZ) for 5 min before the start of treatment with Midazolam. The Midazolam was administered either via IV or using a SipNose device, via the nasal passages. There were two dosing levels, 0.6 mg/kg (FIG. 78) and 6 mg/kg (FIG. 79).
In all cases, the Racine grading standard was used to determine the severity of the seizures. PZT was at t=−5 min, the start of treatment was at time t=0.
Treatment consisted of saline (control, diamonds), Midazolam administered by IV (triangles) or Midazolam administered nasally by a SipNose device (squares).

Question: Which results are given for `Cc1ncc2n1-c1ccc(Cl)cc1C(c1ccccc1F)=NC2` [Midazolam]?
Answer: Racine seizure severity (0.6 mg/kg Midazolam nasally by SipNose, about t=10 min to t=60 min): zero, no seizures were seen; Racine seizure severity (6 mg/kg Midazolam IV): < 0.5; Racine seizure severity (6 mg/kg Midazolam nasally by SipNose): < 0.5

From US11278682B2, “Device and method for aerosolized delivery of substance to a natural orifice of the body” (SIPNOSE LTD., priority 2014, dated 2022)
